Measured values from ChEMBL document CHEMBL3507680, “University of Dundee, Gates Library screen for HepG2 cell viability”.

Assay: Human HepG2 cell viability assay in 384 well format
Type: toxicity, cell-based
Parameters: dose 125 nL, time 70.5 hour; cytotoxicity at 70.5 h: concentration not given beside the values
Conditions: HepG2 cells, read-out: Inhibition

Row | Structure (SMILES) | cytotoxicity at 70.5 h [%]
1 | CC(C(=O)N1CCCN(Cc2ccc(C#N)cc2)CC1)n1cccn1 (centres undefined) | 1.6
2 | CCn1cnnc1C1CCN(C(=O)CCCOc2ccccc2)CC1 | -3.85
3 | CCc1nc(CN2CCCN(C(=O)c3cc(C)on3)CC2)cs1 | -1.87
4 | Cc1ncsc1C(=O)N1CCC(Nc2cccnn2)CC1 | -7.04
5 | CC(=O)Nc1nc(C(=O)N2CCC(Nc3cccnn3)CC2)cs1 | -2.92
6 | O=C(CSc1ccc(F)cc1)NS(=O)(=O)c1ccc2c(c1)OCCO2 | 6.32
7 | CC(CC(=O)NS(=O)(=O)c1ccc2c(c1)OCCO2)c1ccc(F)cc1 (centres undefined) | -1.76
8 | CCOC1CCN(CC(=O)Nc2oc(C)c3c(C)n[nH]c(=O)c23)CC1 | -4.42
9 | CC(C)(C)c1cn2nc(N3CCCC(Cn4cncn4)C3)sc2n1 (centres undefined) | -9.57
10 | O=C(CCN1CCN(c2ccc3nncn3n2)CC1)NC1CCCC1 | -5.28
11 | CC(C)(C)c1cn2nc(N3CCCC3Cn3cccn3)sc2n1 (centres undefined) | 0.173
12 | CCCn1nc2c(cc1=O)CN(Cc1nnc(C3CC3)o1)CC2 | 10.1
13 | CC(c1nc(C2CC2)no1)N1CCN(Cc2ccccc2)CC1 (centres undefined) | -4.04
14 | c1cnc(-c2nc(CN3CCn4c(nnc4C4CC4)C3)cs2)nc1 | -9.61
15 | CC(c1nc(C2CC2)no1)N1CCN(Cc2cccc(F)c2F)CC1 (centres undefined) | -10.5
16 | Cc1ccc(-c2nc(CN3CCn4c(C)nnc4C3)cs2)o1 | -7.11
17 | c1ccc(-c2nc(CN3CCn4c(nnc4C4CC4)C3)cs2)cc1 | -11.8
18 | CN(C)CC1CN(Cc2cccc(C(=O)N(C)C)c2)CCO1 (centres undefined) | -1.2
19 | Cc1nc(C)n(CC2CCCCN2Cc2ncc(C(C)(C)C)o2)n1 (centres undefined) | 8
20 | CC(NC(=O)NCCNc1cnccn1)c1cccs1 (centres undefined) | -6.24

Row | Structure (SMILES) | cytotoxicity at 70.5 h [%]
21 | COc1c(Br)cc(Br)cc1CNC(C)Cn1cccn1 (centres undefined) | 16.4
22 | c1cc2n(n1)CC(CNCc1ccc(OCC3CC3)nc1)CN2 (centres undefined) | 1.11
23 | CNS(=O)(=O)Cc1ccc(CNC(=O)c2ccc(C)[nH]c2=O)cc1 | -9.88
24 | CC(C)C(NC(=O)NCCNc1ccccn1)c1cccs1 (centres undefined) | -8.85
25 | Cc1cccc(-c2nc(C)nn2CC(=O)NC2CCCC2)c1 | 3.32
26 | Cc1cc(C)n(CC2CN(CC(=O)NC3CCCC3)CCO2)n1 (centres undefined) | 18.5
27 | CCc1nnc2n1CCN(C(=O)c1cc3ccc(F)cc3nc1C)C2 | -3.67
28 | Cc1cc(CN2CCN(c3ccc4nncn4n3)C(C)C2)no1 (centres undefined) | 5.04
29 | COc1ccc(CNC2CCCN(Cc3noc(C)n3)C2)cc1F (centres undefined) | 23.4
30 | COc1ccc(-n2ccc(C(=O)N3CCN(C)CC3C)n2)cc1 (centres undefined) | -5.83
31 | Cc1cccc(-c2nc(C)nn2CC(=O)N(C)C2CC2)c1 | -5.01
32 | O=C(Cc1cccc(F)c1)NCCNCc1ccc2c(c1)CCO2 | 6.87
33 | Cc1ccc(-c2nc(CNC3CCc4ncnn4C3)co2)c(C)c1 (centres undefined) | 1.75
34 | O=C(Cc1cccc(F)c1)NCCNCc1ccco1 | 19.4
35 | COc1ccc(CCN2CCC(N3CCN(C)C3=O)CC2)cc1 | -8.36
36 | Cc1nc(C)n(C2CCCN(C(=O)Cc3n[nH]c4ccccc34)C2)n1 (centres undefined) | 1.52
37 | Cn1ccc(CN2CCC(OCCc3ccccc3)CC2)cc1=O | -5.72
38 | CCc1nc(C2CCCN2CC(=O)Nc2sc(C)c(C)c2C)no1 (centres undefined) | -5.03
39 | Cc1nc(C)n(C2CCCN(C(=O)COCc3ccccc3)C2)n1 (centres undefined) | -0.931
40 | O=C(Cc1cccc(F)c1)NCCNCc1cccc(O)c1 | 0.873

Row | Structure (SMILES) | cytotoxicity at 70.5 h [%]
41 | Cn1ccnc1COc1ccc(CN2CCN(CCO)CC2)cc1 | 15
42 | CC(NC(=O)Cn1cccn1)c1ccc2c(c1)OCCCO2 (centres undefined) | 52.1
43 | Cn1ccnc1COc1ccc(CO)cc1 | -6.37
44 | O=C(NCC1CCOC1)c1cc(-c2cccc(Cl)c2)on1 (centres undefined) | -5.03
45 | O=C(NCC1CCOC1)c1csc(-c2ccco2)n1 (centres undefined) | 21.2
46 | Cc1cc(C(=O)N2CCCCC2C)ccc1NCC(=O)N1CCOCC1 (centres undefined) | 26.9
47 | CC(C)C(Sc1nnnn1-c1ccccc1)C(=O)NCc1cccnc1 (centres undefined) | -2.05
48 | CCCNC(=O)CNc1ccc(C(=O)N2CCCCC2C)cc1C (centres undefined) | -2.88
49 | Cc1cccc(-c2noc(CN3CCC(N4CCNC4=O)CC3)n2)c1 | -0.858
50 | CC(=O)Nc1nc(CN2CCCC2Cn2cncn2)cs1 (centres undefined) | 35.6
51 | CCn1cnnc1C1CCN(C(=O)c2ccc(C(=O)OC)s2)CC1 | -10.6
52 | c1ccc(OCCCN2CCN(c3ccc4nncn4n3)CC2)cc1 | 2.05
53 | CN(Cc1cc(-c2ccccc2)no1)C1CCCN(c2cccnn2)C1 (centres undefined) | -13.5
54 | CCN1CCN(C2CCN(Cc3nc(-c4ccoc4)no3)CC2)C1=O | 1.49
55 | COCC(=O)N1CCN(Cc2coc(-c3cccc(F)c3)n2)CC1 | -6.62
56 | COCCN1CCC(NCc2cccnc2)C1 (centres undefined) | 2.68
57 | CC(NC(=O)CNCCn1cccn1)c1ccc2c(c1)OCCO2 (centres undefined) | -7.87
58 | c1ncn(CC2CCCCN2Cc2csc(C3CCCC3)n2)n1 (centres undefined) | 33.9
59 | CCc1nccn1C1CCCN(C(=O)c2ccc(C(=O)NC)nc2)C1 (centres undefined) | -5.35
